Experimental data taken from ChEMBL document CHEMBL1201862, “PubChem BioAssay data set” (2004).
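96-well plates; 48 h exposure; 5 concentrations. Endpoints by linear interpolation between flanking doses. Not reached: highest tested concentration assigned. The concentration for 50% growth inhibition is given as GI50.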 Calls of active or inactive are those of the source. No stated cut-off is given here; in the data, active = GI50 up to about 1.1 µM and inactive = higher.

What was measured:
Assay in all cases: NCI anticancer screen, dose series, 48 h
HCT-15 = system: HCT-15
HCT-116 = system: HCT-116
COLO 205 = system: COLO 205
SK-MEL-28 = system: SK-MEL-28
Malme-3M = system: Malme-3M
NCI-H23 = system: NCI-H23
MDA-MB-231 = system: MDA-MB-231
SK-MEL-5 = system: SK-MEL-5
LOX IMVI = system: LOX IMVI
M14 = system: M14
SF-295 = system: SF-295
SW-620 = system: SW-620
NCI-H226 = system: NCI-H226
PC-3 = system: PC-3
ACHN = system: ACHN
HOP-62 = system: HOP-62
BT-549 = system: BT-549
HCC 2998 = system: HCC 2998
SK-MEL-2 = system: SK-MEL-2

Structure (SMILES) | GI50 (HCT-15) [µM] | GI50 (HCT-116) | GI50 (COLO 205) | GI50 (SK-MEL-28) | GI50 (Malme-3M) | GI50 (NCI-H23) | GI50 (MDA-MB-231) | GI50 (SK-MEL-5) | GI50 (LOX IMVI) | GI50 (M14) | GI50 (SF-295) | GI50 (SW-620) | GI50 (NCI-H226) | GI50 (PC-3) | GI50 (ACHN) | GI50 (HOP-62) | GI50 (BT-549) | GI50 (HCC 2998) | GI50 (SK-MEL-2)
Cc1n[nH]c(=O)n1Nc1ccccc1 | > 100 | > 100 µM (inactive) | > 100 µM (inactive) | > 100 µM (inactive) | > 100 µM (inactive) | > 100 µM (inactive) | > 100 µM (inactive) | > 100 µM (inactive) | > 100 µM (inactive) | > 100 µM (inactive) | > 100 µM (inactive) | > 100 µM (inactive) | > 100 µM (inactive) | > 100 µM (inactive) | > 100 µM (inactive) | > 100 µM (inactive) | > 100 µM (inactive) | > 100 µM (inactive) | 
SC1CCCN(Cc2ccccc2)C1 (stereo not given) | 38.2 | 61.1 µM (inactive) | 17.9 µM (inactive) | 41.9 µM (inactive) |  | 25.6 µM (inactive) | 56.5 µM (inactive) | 18.5 µM (inactive) | 16.5 µM (inactive) | 20 µM (inactive) | 61.1 µM (inactive) | 28.2 µM (inactive) | > 100 µM (inactive) | 57.5 µM (inactive) | 74.8 µM (inactive) | > 100 µM (inactive) | > 100 µM (inactive) | 16.2 µM (inactive) | 36 µM (inactive)
O=C(Cc1ccccc1CCO)NCCc1ccccc1 | > 100 | > 100 µM (inactive) | > 100 µM (inactive) | > 100 µM (inactive) |  | > 100 µM (inactive) | > 100 µM (inactive) | > 100 µM (inactive) |  | > 100 µM (inactive) | > 100 µM (inactive) | > 100 µM (inactive) | > 100 µM (inactive) | > 100 µM (inactive) | > 100 µM (inactive) | > 100 µM (inactive) | > 100 µM (inactive) | > 100 µM (inactive) | > 100 µM (inactive)
COc1ccc(-c2nc(O)c3ccccc3n2)c(OC)c1 | > 100 | > 100 µM (inactive) | > 100 µM (inactive) |  | > 100 µM (inactive) | > 100 µM (inactive) | > 100 µM (inactive) | > 100 µM (inactive) |  | > 100 µM (inactive) | > 100 µM (inactive) | > 100 µM (inactive) | > 100 µM (inactive) | > 100 µM (inactive) | > 100 µM (inactive) | > 100 µM (inactive) | > 100 µM (inactive) | > 100 µM (inactive) | > 100 µM (inactive)
COc1ccc(/C=N\N(C)Cc2cccc3ccsc23)cc1 | 92.9 | 72.4 µM (inactive) | > 100 µM (inactive) | > 100 µM (inactive) | > 100 µM (inactive) | 60.4 µM (inactive) | > 100 µM (inactive) | 28.6 µM (inactive) | > 100 µM (inactive) | > 100 µM (inactive) | > 100 µM (inactive) | > 100 µM (inactive) | > 100 µM (inactive) | > 100 µM (inactive) | > 100 µM (inactive) | > 100 µM (inactive) | > 100 µM (inactive) | > 100 µM (inactive) | 
CC(/C=C/c1ccccc1)=N\NC(N)=S | 27.4 | 35.7 µM (inactive) | 20.5 µM (inactive) | > 100 µM (inactive) | 45.7 µM (inactive) | 74 µM (inactive) | 34.6 µM (inactive) | 38.5 µM (inactive) | > 100 µM (inactive) | 26.5 µM (inactive) | 21.5 µM (inactive) | 50.4 µM (inactive) | 80 µM (inactive) | 90.8 µM (inactive) | 38 µM (inactive) | > 100 µM (inactive) | 29.9 µM (inactive) | 21.6 µM (inactive) | 
COc1ccc(NC(=O)C2=C(SC)C(=O)N=C2N)cc1 | > 100 | > 100 µM (inactive) | > 100 µM (inactive) | > 100 µM (inactive) |  | > 100 µM (inactive) | > 100 µM (inactive) | > 100 µM (inactive) | > 100 µM (inactive) |  | > 100 µM (inactive) | > 100 µM (inactive) | > 100 µM (inactive) | > 100 µM (inactive) | > 100 µM (inactive) | > 100 µM (inactive) | > 100 µM (inactive) | > 100 µM (inactive) | 82 µM (inactive)
CC12CC3OC(=O)C1COC14OC5(C2C1=O)C(O)(CCC1C4CC(O)C2(O)CC=CC(=O)C12C)C(=O)OC35C (stereo not given) | > 100 | > 100 µM (inactive) | > 100 µM (inactive) | > 100 µM (inactive) | > 100 µM (inactive) | > 100 µM (inactive) | > 100 µM (inactive) | > 100 µM (inactive) | > 100 µM (inactive) | > 100 µM (inactive) | > 100 µM (inactive) | > 100 µM (inactive) | > 100 µM (inactive) | > 100 µM (inactive) | > 100 µM (inactive) |  | > 100 µM (inactive) | > 100 µM (inactive) | > 100 µM (inactive)
Cc1ccc(S(=O)(=O)Nc2nc3ccccc3c(=O)n2C2CCCCC2)cc1 | > 100 | > 100 µM (inactive) | > 100 µM (inactive) | > 100 µM (inactive) |  | > 100 µM (inactive) | 78.3 µM (inactive) | > 100 µM (inactive) | > 100 µM (inactive) | > 100 µM (inactive) | 23.1 µM (inactive) | > 100 µM (inactive) | > 100 µM (inactive) | > 100 µM (inactive) | > 100 µM (inactive) | > 100 µM (inactive) | 28.1 µM (inactive) | > 100 µM (inactive) | > 100 µM (inactive)
CC1(C)COCN1COC1CCCCC1 | > 100 | > 100 µM (inactive) | > 100 µM (inactive) | > 100 µM (inactive) | > 100 µM (inactive) | > 100 µM (inactive) | > 100 µM (inactive) | > 100 µM (inactive) |  | > 100 µM (inactive) | > 100 µM (inactive) | > 100 µM (inactive) | > 100 µM (inactive) | > 100 µM (inactive) | > 100 µM (inactive) | > 100 µM (inactive) | > 100 µM (inactive) | > 100 µM (inactive) | > 100 µM (inactive)
Cc1cc(S(=O)(=O)NC2=Nc3cccc4cccc(c34)N2)c(S)cc1Cl | > 100 | 18.1 µM (inactive) | 84.7 µM (inactive) | > 100 µM (inactive) | > 100 µM (inactive) |  | > 100 µM (inactive) | 60.5 µM (inactive) | 70.5 µM (inactive) | 65.2 µM (inactive) | 39.5 µM (inactive) | 78.7 µM (inactive) | > 100 µM (inactive) | 65.3 µM (inactive) | > 100 µM (inactive) |  | > 100 µM (inactive) | > 100 µM (inactive) | > 100 µM (inactive)
COC(=O)c1cc2c(cc1Cl)Sc1nnc(Nc3ccc(C)cc3)n1S2(=O)=O | 3.97 | 8.93 µM (inactive) | 4.84 µM (inactive) | 9.33 µM (inactive) | 11 µM (inactive) | 3.61 µM (inactive) | 10.6 µM (inactive) | 13.8 µM (inactive) |  | 12.7 µM (inactive) | 10.9 µM (inactive) |  | 12.1 µM (inactive) | 4.85 µM (inactive) | 3.48 µM (inactive) | 8.89 µM (inactive) | 13.4 µM (inactive) | 4.75 µM (inactive) | 2.9 µM (inactive)
O=C(NCCO)c1c(O)c2ccccc2[nH]c1=O | 62.2 | > 100 µM (inactive) | > 100 µM (inactive) | > 100 µM (inactive) | > 100 µM (inactive) | > 100 µM (inactive) | > 100 µM (inactive) | > 100 µM (inactive) | > 100 µM (inactive) |  | > 100 µM (inactive) | > 100 µM (inactive) | > 100 µM (inactive) | > 100 µM (inactive) | > 100 µM (inactive) | > 100 µM (inactive) | > 100 µM (inactive) | > 100 µM (inactive) | 
CCCCCCCCCCOCCOCCOCCOCCCCC(O)CCCCCCCC1=C[C@H](C)OC1=O (stereo not given in full) | 12.7 | 9.53 µM (inactive) | 15.2 µM (inactive) | 12.2 µM (inactive) | 19.6 µM (inactive) | 0.774 µM (active) | 14.1 µM (inactive) | 0.76 µM (active) | 4.98 µM (inactive) | 14.3 µM (inactive) | 9.89 µM (inactive) | 12.1 µM (inactive) | 10.9 µM (inactive) | 9.98 µM (inactive) | 11.7 µM (inactive) |  | 0.959 µM (active) | 13.2 µM (inactive) | 12.5 µM (inactive)
COC(=O)CCC(=O)NC1=C(NCc2ccccc2)C(=O)c2ccccc2C1=O | 17 | 30.3 µM (inactive) | 20.4 µM (inactive) | 88.3 µM (inactive) |  | 21.3 µM (inactive) | 23.4 µM (inactive) | 12.1 µM (inactive) | 21.8 µM (inactive) | 18.7 µM (inactive) | 26.7 µM (inactive) | 19.9 µM (inactive) | 85.1 µM (inactive) | 25.2 µM (inactive) | 27.4 µM (inactive) |  | 46.7 µM (inactive) | 37.2 µM (inactive) | 18.8 µM (inactive)
O=P1(O)c2ccccc2CCc2ccccc21 | > 100 | > 100 µM (inactive) | > 100 µM (inactive) | > 100 µM (inactive) |  | > 100 µM (inactive) | > 100 µM (inactive) | > 100 µM (inactive) | > 100 µM (inactive) | > 100 µM (inactive) | > 100 µM (inactive) | > 100 µM (inactive) | > 100 µM (inactive) | > 100 µM (inactive) |  | > 100 µM (inactive) | 80.7 µM (inactive) | > 100 µM (inactive) | > 100 µM (inactive)
